IC50 and Ki data for 29 molecules are collected here from patent US9540323B2 (BRISTOL-MYERS SQUIBB COMPANY, priority 2012, dated 2017).

In assay [1] the test system is human platelet rich plasma (PRP). As to the kind of experiment: ADP induced platelet aggregation assay. Conditions: Homo sapiens, Platelet, 5 min, read-out: PA IC50 (μM) @ 10 μM ADP, human PRP, 10 μM ADP, AUC at 5 minute.
In assay [2] the target is cloned human P2Y1 receptors (Homo sapiens (Human), UniProt P47900). As to the kind of experiment: Binding Assay B - Scintillation Proximity Assay (SPA) for P2Y1 binding, [33P] 2MeS-ADP. Conditions: SPA, 0.3 nM [33P] 2MeS-ADP, Cheng-Prusoff; read-out: P2Y1 Ki (nM) using binding assay B. Here is the method: Binding Assay B—Scintillation Proximity Assay (SPA) for P2Y1 Binding
A SPA membrane binding assay was used to identify inhibitors of [^33P] […] Reactions were allowed to proceed to completion at room temperature for 1 hour followed by centrifugation of the plate for 5 min. About 40 μL of the aqueous solution was aspirated. Plates were sealed and the [^33P]

Chain of cloned human P2Y1 receptors (P47900 whole entry): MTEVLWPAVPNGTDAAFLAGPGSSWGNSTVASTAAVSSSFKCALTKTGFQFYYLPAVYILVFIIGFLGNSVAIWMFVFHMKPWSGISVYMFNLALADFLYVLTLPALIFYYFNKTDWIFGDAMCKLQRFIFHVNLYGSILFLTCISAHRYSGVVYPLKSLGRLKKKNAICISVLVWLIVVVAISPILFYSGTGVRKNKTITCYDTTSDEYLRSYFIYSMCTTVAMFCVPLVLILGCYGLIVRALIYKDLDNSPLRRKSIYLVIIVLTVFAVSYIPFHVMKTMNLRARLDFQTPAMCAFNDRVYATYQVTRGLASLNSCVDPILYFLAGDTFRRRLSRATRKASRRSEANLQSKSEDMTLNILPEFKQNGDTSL

As to `CCC1(CC)CN(c2ccccc2NC(=O)Nc2ccc(C3CCCN3CC(C)(C)C)cc2)c2c(O)ccc(F)c21` (stereo not shown) [Example 29, 1-(2-(3,3-Diethyl-4-fluoro-7-hydroxyindolin-1-yl)phenyl)-3-(4-(1-neopentylpyrrolidin-2-yl)phenyl)urea], the IC50 in assay [1] worked out at 0.3 µM. In assay [2], the Ki amounted to 3.6 nM.
Consider `CCC1(CC)CN(c2ccccc2NC(=O)Nc2ccc(C3CCCN3CC(C)C)cc2)c2c(O)ccc(F)c21` (stereo not shown) [Example 30, 1-(2-(3,3-Diethyl-4-fluoro-7-hydroxyindolin-1-yl)phenyl)-3-(4-(1-isobutylpyrrolidin-2-yl)phenyl)urea], for which, in assay [1], the IC50 was found to be 0.28 µM. In addition, the Ki in assay [2] amounted to 5.1 nM.
On the same counts, the results for `CCC1(CC)CN(c2ccccc2NC(=O)Nc2csc(Cl)n2)c2c(O)ccc(F)c21` [Example 31, 1-(2-Chlorothiazol-4-yl)-3-(2-(3,3-diethyl-4-fluoro-7-hydroxyindolin-1-yl)phenyl)urea] are 0.53 µM and 3.3 nM.
Consider `CCSc1nsc(NC(=O)Nc2ccccc2N2CC(CC)(CC)c3c(F)ccc(O)c32)n1` [Example 33, 1-(2-(3,3-Diethyl-4-fluoro-7-hydroxyindolin-1-yl)phenyl)-3-(3-(ethylthio)-1,2,4-thiadiazol-5-yl)urea], for which the IC50 in assay [1] turned out to be 0.55 µM. Further, the Ki in assay [2] worked out at 7.6 nM.
On the same counts, the results for `CC(C)CN1CCCC1c1ccc(NC(=O)Nc2ccccc2N2CC(C)(C)c3c(F)ccc(O)c32)cc1` (stereo not shown) [Example 34, 1-(2-(4-Fluoro-7-hydroxy-3,3-dimethylindolin-1-yl)phenyl)-3-(4-(1-isobutylpyrrolidin-2-yl)phenyl)urea] are 1.07 µM and 9.8 nM.
On to `CCC1(CC)CN(c2ccccc2NC(=O)Nc2ccc(OC(F)(F)F)cc2)c2c1ccc(F)c2O` [Example 35, 1-(2-(3,3-Diethyl-6-fluoro-7-hydroxyindolin-1-yl)phenyl)-3-(4-(trifluoromethoxy)phenyl)urea], for which the IC50 in assay [1] was found to be 0.38 µM. The Ki in assay [2] came out at 13.8 nM.
As for `CCC1(CC)CN(c2ccccc2NC(=O)Nc2ccc(C3CCN(CC(C)(C)C)CC3)cc2)c2c1ccc(F)c2O` [Example 37, 1-(2-(3,3-Diethyl-6-fluoro-7-hydroxyindolin-1-yl)phenyl)-3-(4-(1-neopentylpiperidin-4-yl)phenyl)urea], the IC50 in assay [1] was determined as 0.89 µM. Besides, the Ki in assay [2] was 8.7 nM.
The matching figures for `CCC1(CC)CN(c2ccccc2NC(=O)Nc2ccc(C(C)(C)C)cc2)c2c1ccc(F)c2O` [Example 38, 1-(4-tert-Butylphenyl)-3-(2-(3,3-diethyl-6-fluoro-7-hydroxyindolin-1-yl)phenyl)urea]: 0.43 µM and 14.8 nM.
The matching figures for `CCC1(CC)CN(c2ccccc2NC(=O)Nc2ccc(OC(F)(F)F)cc2)c2c(O)ccc(Br)c21` [Example 39, 1-(2-(3,3-Diethyl-4-bromo-7-hydroxyindolin-1-yl)phenyl)-3-(4-(trifluoromethoxy)phenyl)urea]: 0.51 µM and 18.8 nM.
The matching figures for `CC1(C)CN(c2ccccc2NC(=O)Nc2ccc(OC(F)(F)F)cc2)c2c(O)ccc(Br)c21` [Example 40, 1-(2-(4-Bromo-7-hydroxy-3,3-dimethylindolin-1-yl)phenyl)-3-(4-(trifluoromethoxy)phenyl)urea]: 0.53 µM and 13.8 nM.
Turning to `CC1(C)CN(c2ccccc2NC(=O)Nc2nc3ccc(Cl)cc3s2)c2c(O)ccc(Br)c21` [Example 41, 1-(2-(4-Bromo-7-hydroxy-3,3-dimethylindolin-1-yl)phenyl)-3-(6-chlorobenzo[d]thiazol-2-yl)urea], the IC50 in assay [1] is 0.47 µM. Further, the Ki in assay [2] amounted to 10.6 nM.
With `CC1(C)CN(c2ccccc2NC(=O)Nc2nc3ccc(Br)cc3s2)c2c(O)ccc(Br)c21` [Example 42, 1-(2-(4-Bromo-7-hydroxy-3,3-dimethylindolin-1-yl)phenyl)-3-(6-bromobenzo[d]thiazol-2-yl)urea], the IC50 in assay [1] worked out at 0.45 µM. Moreover, the Ki in assay [2] amounted to 27.7 nM.
`CCC1(CC)CN(c2ccccc2NC(=O)Nc2ccc(OC(F)(F)F)cc2)c2c(O)ccc(C#N)c21` [Example 43, 1-(2-(3,3-Diethyl-4-cyano-7-hydroxyindolin-1-yl)phenyl)-3-(4-(trifluoromethoxy)phenyl)urea]: the IC50 in assay [1] was 0.47 µM. For the same molecule, the inhibition constant Ki in assay [2] worked out at 7.8 nM.
On the same counts, the results for `CCC1(CC)CN(c2ccccc2NC(=O)Nc2ccc(C(C)(C)C)cc2)c2c(O)ccc(C#N)c21` [Example 44, 1-(4-tert-Butylphenyl)-3-(2-(4-cyano-3,3-diethyl-7-hydroxyindolin-1-yl)phenyl)urea] are 0.45 µM and 6.9 nM.
On the same counts, the results for `CCC1(CC)CN(c2ccccc2NC(=O)Nc2ccc(C3CCN(CC(C)(C)C)CC3)cc2)c2c(O)ccc(C#N)c21` [Example 45, 1-(2-(4-Cyano-3,3-diethyl-7-hydroxyindolin-1-yl)phenyl)-3-(4-(1-neopentylpiperidin-4-yl)phenyl)urea] are 0.39 µM and 6.7 nM.
The matching figures for `CCC1(CC)CN(c2ccccc2NC(=O)Nc2ccc(C3CCN(CC(C)C)CC3)cc2)c2c(O)ccc(C#N)c21` [Example 46, 1-(2-(4-Cyano-3,3-diethyl-7-hydroxyindolin-1-yl)phenyl)-3-(4-(1-isobutylpiperidin-4-yl)phenyl)urea]: 1 µM and 9.5 nM.
As to `CC1(C)CN(c2ccccc2NC(=O)Nc2ccc(OC(F)(F)F)cc2)c2c(O)ccc(C#N)c21` [Example 47, 1-(2-(4-Cyano-7-hydroxy-3,3-dimethylindolin-1-yl)phenyl)-3-(4-(trifluoromethoxy)phenyl)urea], in assay [1], the IC50 was determined as 3.35 µM. Also, the Ki in assay [2] is 18.6 nM.
With `CCC1(CC)CN(c2ccccc2NC(=O)Nc2ccc(C3CCN(CC(C)C)CC3)cc2)c2c(O)ccc(Cl)c21` [Example 50, 1-(2-(4-Chloro-3,3-diethyl-7-hydroxyindolin-1-yl)phenyl)-3-(4-(1-isobutylpiperidin-4-yl)phenyl)urea], the IC50 in assay [1] turned out to be 0.86 µM. Further, the Ki in assay [2] turned out to be 6.6 nM.
On the same counts, the results for `CCC1(CC)CN(c2ccccc2NC(=O)Nc2ccc(OC(F)(F)F)cc2)c2c(O)ccc(Cl)c21` [Example 51, 1-(2-(4-Chloro-3,3-diethyl-7-hydroxyindolin-1-yl)phenyl)-3-(4-(trifluoromethoxy)phenyl)urea] are 0.41 µM and 14.1 nM.
`CCC1(CC)CN(c2ccccc2NC(=O)Nc2ccc(C(F)(F)F)cc2)c2c(O)ccc(Cl)c21` [Example 52, 1-(2-(4-Chloro-3,3-diethyl-7-hydroxyindolin-1-yl)phenyl)-3-(4-(trifluoromethyl)phenyl) urea]: the IC50 in assay [1] came to 0.28 µM. Moreover, the Ki in assay [2] was found to be 12.6 nM.
On the same counts, the results for `CCC1(CC)CN(c2ccccc2NC(=O)Nc2csc(Cl)n2)c2c(O)ccc(Cl)c21` [Example 53, 1-(2-(4-Chloro-3,3-diethyl-7-hydroxyindolin-1-yl)phenyl)-3-(2-chlorothiazol-4-yl)urea] are 0.28 µM and 5 nM.
The matching figures for `CCC1(CC)CN(c2ccccc2NC(=O)Nc2nc3c(s2)CN(CC(C)C)CC3)c2c(O)ccc(Cl)c21` [Example 54, 1-(2-(4-Chloro-3,3-diethyl-7-hydroxyindolin-1-yl)phenyl)-3-(5-isobutyl-4,5,6,7-tetrahydrothiazolo[5,4-c]pyridin-2-yl)urea]: 0.15 µM and 13.3 nM.
The matching figures for `CCC1(CC)CN(c2ccccc2NC(=O)Nc2nc3c(s2)CN(CC(F)(F)F)CC3)c2c(O)ccc(Cl)c21` [Example 55, 1-(2-(4-Chloro-3,3-diethyl-7-hydroxyindolin-1-yl)phenyl)-3-(5-(2,2,2-trifluoroethyl)-4,5,6,7-tetrahydrothiazolo[5,4-c]pyridin-2-yl)urea]: 0.63 µM and 16.2 nM.
On to `CC1(C)CN(c2ccccc2NC(=O)Nc2ccc(OC(F)(F)F)cc2)c2c(O)ccc(Cl)c21` [Example 56, 1-(2-(4-Chloro-7-hydroxy-3,3-dimethylindolin-1-yl)phenyl)-3-(4-(trifluoromethoxy)phenyl)urea], for which the IC50 in assay [1] is 0.87 µM. Further, in assay [2], the inhibition constant Ki worked out at 8.7 nM.
The matching figures for `CC1(C)CN(c2ccccc2NC(=O)Nc2ccc(C(F)(F)F)cc2)c2c(O)ccc(Cl)c21` [Example 57, 1-(2-(4-Chloro-7-hydroxy-3,3-dimethylindolin-1-yl)phenyl)-3-(4-(trifluoromethyl)phenyl) urea]: 0.9 µM and 8.3 nM.
On the same counts, the results for `CC1(C)CN(c2ccccc2NC(=O)Nc2csc(Cl)n2)c2c(O)ccc(Cl)c21` [Example 58, 1-(2-(4-Chloro-7-hydroxy-3,3-dimethylindolin-1-yl)phenyl)-3-(2-chlorothiazol-4-yl)urea] are 0.32 µM and 4.1 nM.
The matching figures for `CC1(C)CN(c2cc(F)ccc2NC(=O)Nc2ccc(F)cc2F)c2c(O)ccc(C(F)(F)F)c21` [Example 59, 1-(2,4-Difluorophenyl)-3-(4-fluoro-2-(7-hydroxy-3,3-dimethyl-4-(trifluoromethyl)indolin-1-yl)phenyl)urea]: 0.24 µM and 5.7 nM.
Regarding `CC1(C)CN(c2ccc(F)cc2NC(=O)Nc2ccc(F)cc2F)c2c(O)ccc(C(F)(F)F)c21` [Example 60, 1-(2,4-Difluorophenyl)-3-(5-fluoro-2-(7-hydroxy-3,3-dimethyl-4-(trifluoromethyl)indolin-1-yl)phenyl)urea], the concentration for half-maximal inhibition (IC50) in assay [1] worked out at 0.62 µM. In addition, the Ki in assay [2] came to 10.6 nM.
For the molecule `CC1(C)CN(c2cccc(F)c2NC(=O)Nc2ccc(F)cc2F)c2c(O)ccc(C(F)(F)F)c21` [Example 61, 1-(2,4-Difluorophenyl)-3-(2-fluoro-6-(7-hydroxy-3,3-dimethyl-4-(trifluoromethyl)indolin-1-yl)phenyl)urea], the 50% inhibitory concentration (IC50) in assay [1] was determined as 0.54 µM. Also, the inhibition constant Ki in assay [2] came to 5.2 nM.
